Experimental findings from patent publication US20260078103A1, “ISOQUINOLONES AS PI3K INHIBITORS” (OnKure, Inc., priority 2022, published 2026) are described below.

Molecules are shown by their SMILES. Like-named read-outs stand apart in the source and are kept apart here.

Common to all, as to format: cell-based
For test [1], the system named is T47D cells expressing mutant PI3Ka (H1047R). Kind of test: In vitro cell proliferation, T47D cells (CellTiter-Glo). Particulars: inhibition of proliferation, read-out: Avg T-47D EC50. The method, boiled down: (§1)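 Proliferation was read by CellTiter-Glo luminescence after 72 h of exposure to 10-point compound dilutions at 37 °C and 5% CO2. T47D (RPMI, 10% FBS, insulin 0.2 units/mL) and SKBR3 (McCoys 5a, 10% FBS) cells were seeded at 1,500 cells/well. EC50 was fitted from inhibition relative to DMSO and 10 uM Alpelisib.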
Background: In ATP-based viability assays light output follows the ATP content of the culture.

Test [2] relates to phosphorylation of AKT (pAKT) in T47D cells expressing mutant PI3Ka (H1047R). Kind of test: In vitro cell pAKT (Ser473) HTRF, T47D cells. The conditions noted are these: cellular pAKT, T47D cells, mutant PI3Ka (H1047R), 6 hours, read-out: Avg T-47D IC50. The method, boiled down: (§2)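 pAKT (Ser473) was quantified by HTRF in lysates from cells exposed 6 h at 37 °C to 10-point compound series, with T47D in insulin-supplemented RPMI/10% FBS and SKBR3 in McCoy's 5a/10% FBS. Controls: 0.1% DMSO (high) and 10 uM alpelisib (low). IC50 from sigmoidal curve fitting.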
Background: In TR-FRET formats the signal depends on donor and acceptor labels being close together.

Test [3] deals with phosphorylation of AKT (pAKT) in SKBR3 cells express WT PI3Ka. Kind of test: In vitro cell pAKT (Ser473) HTRF, SKBR3 cells. The conditions noted are these: cellular pAKT. In outline: as §2
The subject of test [4] is SKBR3 cells express WT PI3Ka. Kind of test: In vitro cell proliferation, SKBR3 cells (CellTiter-Glo). The conditions noted are these: inhibition of proliferation. The method, boiled down: as §1

In the case of `Cc1cc([C@@H](C)Nc2cccc(F)c2C(=O)O)c2cc(N3CCN(c4cncnc4C)CC3)n(C)c(=O)c2c1` [Example 325], the EC50 (as a rule, the concentration needed to bring the measured effect to its halfway point) fell in the range of 1 to 500 nM in test [1] (72 hours) and 2000 to 15000 nM in test [4] (72 hours). In addition, the IC50 (in general, the concentration that inhibits the measured activity by half) in test [2] was in the range of 500 to 2000 nM; in test [3] (6 hours) it was 2000 to 15000 nM.

With `Cc1cc([C@@H](C)Nc2cccc(F)c2C(=O)O)c2cc(-c3ccc(C(C)(C)F)nc3)n(C)c(=O)c2c1` [Example 326], the EC50 was 1 to 500 nM in test [1] (Homo sapiens, T47D, 72 h) and more than 15000 nM in test [4] (Homo sapiens, SK-BR-3, 72 h). In addition, the IC50 in test [2] (Homo sapiens, T47D, 6 h) was 1 to 500 nM; in test [3] (Homo sapiens, SK-BR-3, 6 h) it was more than 15000 nM.

Turning to `Cc1cc([C@@H](C)Nc2ccc(Cl)c(F)c2C(=O)O)c2cc(N3CCN(CC(F)(F)F)CC3)n(C)c(=O)c2c1` [Example 327], the EC50 was 500 to 2000 nM in test [1] (72 hours) and more than 15000 nM in test [4] (72 hours). Also, the figures for the IC50 in test [2] and in test [3] (6 hours) were 500 to 2000 nM and 2000 to 15000 nM, respectively.

Take `Cc1cc([C@@H](C)Nc2cccc(F)c2C(=O)O)c2cc(N3CCN(c4cc(C)ncn4)CC3)n(C)c(=O)c2c1` [Example 328]: the EC50 was 500 to 2000 nM in test [1] (Homo sapiens, T47D, 72 h) and 2000 to 15000 nM in test [4] (Homo sapiens, SK-BR-3, 72 h). Besides, the IC50 in test [2] (Homo sapiens, T47D, 6 h) is 500 to 2000 nM; in test [3] (Homo sapiens, SK-BR-3, 6 h), more than 15000 nM.

For the compound `Cc1cc([C@@H](C)Nc2ccc(Cl)nc2C(=O)O)c2cc(-c3cnc(C(C)C)nc3)n(C)c(=O)c2c1` [Example 329], the EC50 in test [1] (Homo sapiens, T47D, 72 h) fell in the range of 1 to 500 nM; in test [4] (Homo sapiens, SK-BR-3, 72 h), 2000 to 15000 nM. Further, the IC50 was 1 to 500 nM in test [2] (Homo sapiens, T47D, 6 h) and 2000 to 15000 nM in test [3] (Homo sapiens, SK-BR-3, 6 h).

With `Cc1cc([C@@H](C)Nc2ccccc2C(=O)O)c2cc(-c3ccc4c(c3)OC(F)(F)O4)n(C)c(=O)c2c1` [Example 330], the EC50 in test [1] (Homo sapiens, T47D, 72 h) was 500 to 2000 nM; in test [4] (Homo sapiens, SK-BR-3, 72 h), more than 15000 nM. Moreover, the IC50 in test [2] (Homo sapiens, T47D, 6 h) is 1 to 500 nM; in test [3] (Homo sapiens, SK-BR-3, 6 h), more than 15000 nM.

With `Cc1cc([C@@H](C)Nc2ccccc2C(=O)O)c2cc(-c3ccc(C4(C#N)CC4)nc3)n(C)c(=O)c2c1` [Example 331], the EC50 is 1 to 500 nM in test [1] (Homo sapiens, T47D, 72 h) and more than 15000 nM in test [4] (Homo sapiens, SK-BR-3, 72 h). Further, the IC50 in test [2] (Homo sapiens, T47D, 6 h) was 1 to 500 nM; in test [3] (Homo sapiens, SK-BR-3, 6 h), more than 15000 nM.

For the compound `Cc1cc([C@@H](C)Nc2ccccc2C(=O)O)c2cc(OCC(F)(F)F)n(C)c(=O)c2c1` [Example 332], the EC50 in test [1] (Homo sapiens, T47D, 72 h) was 500 to 2000 nM; in test [4] (Homo sapiens, SK-BR-3, 72 h), more than 15000 nM. Besides, the IC50 is 1 to 500 nM in test [2] (Homo sapiens, T47D, 6 h) and more than 15000 nM in test [3] (Homo sapiens, SK-BR-3, 6 h).

Turning to `Cc1cc([C@@H](C)Nc2ccccc2C(=O)O)c2cc(OCC3(C)CC3)n(C)c(=O)c2c1` [Example 333], the EC50 is 1 to 500 nM in test [1] (Homo sapiens, T47D, 72 h) and more than 15000 nM in test [4] (Homo sapiens, SK-BR-3, 72 h). Further, the IC50 in test [2] (Homo sapiens, T47D, 6 h) was 1 to 500 nM; in test [3] (Homo sapiens, SK-BR-3, 6 h), more than 15000 nM.

For the compound `Cc1cc([C@@H](C)Nc2ccccc2C(=O)O)c2cc(OCc3ccc(C)nc3)n(C)c(=O)c2c1` [Example 334], the EC50 in test [1] (Homo sapiens, T47D, 72 h) is 1 to 500 nM; in test [4] (Homo sapiens, SK-BR-3, 72 h), more than 15000 nM. In addition, the IC50 in test [2] (Homo sapiens, T47D, 6 h) is 1 to 500 nM; in test [3] (Homo sapiens, SK-BR-3, 6 h) it was more than 15000 nM.

With `Cc1cc([C@@H](C)Nc2ccccc2C(=O)O)c2cc(OCc3ccccn3)n(C)c(=O)c2c1` [Example 335], the EC50 is 500 to 2000 nM in test [1] (Homo sapiens, T47D, 72 h) and more than 15000 nM in test [4] (Homo sapiens, SK-BR-3, 72 h). The IC50 in test [2] (Homo sapiens, T47D, 6 h) was 1 to 500 nM; in test [3] (Homo sapiens, SK-BR-3, 6 h), more than 15000 nM.

Take `Cc1cc([C@@H](C)Nc2ccc(Cl)nc2C(=O)O)c2cc(N3CCN(CC(F)(F)F)CC3)n(C)c(=O)c2c1` [Example 336]: the EC50 in test [1] (Homo sapiens, T47D, 72 h) lay in the range of 1 to 500 nM; in test [4] (Homo sapiens, SK-BR-3, 72 h) it was 2000 to 15000 nM. Besides, the IC50 in test [2] (Homo sapiens, T47D, 6 h) was 1 to 500 nM; in test [3] (Homo sapiens, SK-BR-3, 6 h), 2000 to 15000 nM.

As to `CC(C)c1ncc(-c2cc3c([C@@H](C)Nc4ccccc4C(=O)O)cc(Cl)cc3c(=O)n2C)cn1` [Example 337], the 50% effective concentration (EC50) was 1 to 500 nM in test [1] (Homo sapiens, T47D, 72 h) and more than 15000 nM in test [4] (Homo sapiens, SK-BR-3, 72 h). For the same compound, the IC50 in test [2] (Homo sapiens, T47D, 6 h) is 1 to 500 nM; in test [3] (Homo sapiens, SK-BR-3, 6 h), more than 15000 nM.

As for `Cc1cc([C@@H](C)Nc2ccccc2C(=O)O)c2cc(-c3cccc(C(F)F)n3)n(C)c(=O)c2c1` [Example 338], the half-maximal effective concentration (EC50) in test [1] (Homo sapiens, T47D, 72 h) lay in the range of 1 to 500 nM; in test [4] (Homo sapiens, SK-BR-3, 72 h), 2000 to 15000 nM. Moreover, the IC50 in test [2] (Homo sapiens, T47D, 6 h) is 1 to 500 nM; in test [3] (Homo sapiens, SK-BR-3, 6 h) it was more than 15000 nM.

Regarding `Cc1cc([C@@H](C)Nc2ccccc2C(=O)O)c2cc(OC3CC3)n(C)c(=O)c2c1` [Example 339], the EC50 in test [1] (Homo sapiens, T47D, 72 h) was 500 to 2000 nM; in test [4] (Homo sapiens, SK-BR-3, 72 h) it was more than 15000 nM. The IC50 is 1 to 500 nM in test [2] (Homo sapiens, T47D, 6 h) and more than 15000 nM in test [3] (Homo sapiens, SK-BR-3, 6 h).

Take `Cc1cc([C@@H](C)Nc2ccccc2C(=O)O)c2cc(N3CCN(c4nccs4)CC3)n(C)c(=O)c2c1` [Example 340]: the EC50 is 1 to 500 nM in test [1] (Homo sapiens, T47D, 72 h) and more than 15000 nM in test [4] (Homo sapiens, SK-BR-3, 72 h). Moreover, the IC50 in test [2] (Homo sapiens, T47D, 6 h) fell in the range of 1 to 500 nM; in test [3] (Homo sapiens, SK-BR-3, 6 h), 2000 to 15000 nM.
